Experimental findings from PubChem BioAssay (NCI) are described below.

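Briefly, cells in 96-well plates were exposed to five compound concentrations for 48 h, and endpoints were estimated by linear interpolation. TGI is the concentration that stops growth completely.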 Bounds are passed on as bounds.

Among the test systems are DU-145 prostate; HS 578T breast; IGROV1 ovarian; LOX IMVI melanoma; NCI/ADR-RES ovarian; OVCAR-8 ovarian; SF-268 CNS; SF-295 CNS; SK-MEL-5 melanoma; SK-OV-3 ovarian; UACC-257 melanoma.
Assay in all cases: NCI anticancer screen, dose series, 48 h

Regarding `S=C1SC(c2ccc(Cl)cc2)(c2ccc(Cl)cc2)c2ccccc21`, the TGI in the test on DU-145 prostate, in the test with HS 578T breast, in the test on IGROV1 ovarian, in the test on LOX IMVI melanoma, in the test on NCI/ADR-RES ovarian and in the test on OVCAR-8 ovarian was above 100 µM each time. For the same compound, the TGI with SF-268 CNS, with SF-295 CNS, with SK-MEL-5 melanoma, with SK-OV-3 ovarian and in the test with UACC-257 melanoma was above 100 µM in each case.

With `O=C(N/C(=C\c1ccccc1)C1Nc2ccccc2C(=O)O1)c1ccccc1` (configuration not stated), the TGI in the test on DU-145 prostate is above 100 µM; in the test with HS 578T breast it was 99.7 µM; in the test on IGROV1 ovarian, above 100 µM; in the test with LOX IMVI melanoma, 36.1 µM; in the test on NCI/ADR-RES ovarian it was 70.9 µM; in the test with OVCAR-8 ovarian it was 51.1 µM. The TGI is above 100 µM in the test with SF-268 CNS; above 100 µM in the test with SF-295 CNS; 34.7 µM in the test with SK-MEL-5 melanoma; above 100 µM in the test on SK-OV-3 ovarian; 58.4 µM in the test with UACC-257 melanoma.

In the case of `CC1(C)C2CCC1(CC(=O)O)C(Cl)C2` (configuration not stated), the TGI in the test on DU-145 prostate, in the test on HS 578T breast, in the test on IGROV1 ovarian, in the test with LOX IMVI melanoma, in the test on NCI/ADR-RES ovarian and in the test on OVCAR-8 ovarian was above 100 µM in each case. For the same compound, the TGI in the test on SF-268 CNS, in the test with SF-295 CNS, in the test on SK-MEL-5 melanoma, in the test on SK-OV-3 ovarian and with UACC-257 melanoma was above 100 µM each time.

Regarding `CN(C)/C=N/S(=O)(=O)c1nn2c(C=O)c(-c3ccc(-c4ccc([N+](=O)[O-])cc4)o3)nc2s1`, the TGI was 26.6 µM with DU-145 prostate; above 21.8 µM in the test with HS 578T breast; 4.42 µM with IGROV1 ovarian; above 25 µM in the test on LOX IMVI melanoma; above 96.6 µM with NCI/ADR-RES ovarian; above 38.8 µM in the test on OVCAR-8 ovarian. Further, the TGI in the test on SF-268 CNS is above 29 µM; in the test on SF-295 CNS it was above 46.5 µM; with SK-MEL-5 melanoma it was 16.3 µM; with SK-OV-3 ovarian it was above 71.5 µM; in the test on UACC-257 melanoma, 24.3 µM.

In the case of `CC(NC(=O)C(N)CC(=O)O)NC(=O)N1CCCC1` (configuration not stated), the TGI in the test with DU-145 prostate, with HS 578T breast, in the test with IGROV1 ovarian, with LOX IMVI melanoma, with NCI/ADR-RES ovarian and in the test with OVCAR-8 ovarian was above 100 µM each time. The TGI with SF-268 CNS, with SF-295 CNS, in the test on SK-MEL-5 melanoma, in the test on SK-OV-3 ovarian and with UACC-257 melanoma was above 100 µM in each case.

In the case of `OCSc1nn(CO)c(=S)s1`, the TGI with DU-145 prostate amounted to 57.6 µM; in the test on HS 578T breast, 42.4 µM; with IGROV1 ovarian, 47.8 µM; with LOX IMVI melanoma it was 40.7 µM; with NCI/ADR-RES ovarian, 45.1 µM; with OVCAR-8 ovarian, 32.8 µM. Also, the TGI with SF-268 CNS was 50.5 µM; in the test on SF-295 CNS it was 71.9 µM; with SK-MEL-5 melanoma, above 100 µM; with SK-OV-3 ovarian, 92.7 µM; in the test with UACC-257 melanoma it was 48.1 µM.

Consider `CCCCCCCCCCCCP(=O)(O)OCC(N)C(=O)O` (configuration not stated), for which the TGI with DU-145 prostate is above 100 µM; in the test with HS 578T breast, 58.2 µM; with IGROV1 ovarian, above 100 µM; in the test on LOX IMVI melanoma, above 100 µM; with NCI/ADR-RES ovarian it was above 100 µM; with OVCAR-8 ovarian, above 100 µM. Also, the TGI is above 100 µM with SF-268 CNS; 41.4 µM in the test with SF-295 CNS; above 100 µM in the test on SK-MEL-5 melanoma; 73.3 µM with SK-OV-3 ovarian; above 100 µM in the test with UACC-257 melanoma.

`O=C(O)C(F)(OC(F)(F)C(F)(OC(F)(F)C(F)(F)C(F)(F)F)C(F)(F)F)C(F)(F)F` (configuration not stated): the TGI in the test on DU-145 prostate, in the test on HS 578T breast, in the test on IGROV1 ovarian, in the test on LOX IMVI melanoma, in the test with NCI/ADR-RES ovarian and with OVCAR-8 ovarian was above 100 µM in each case. For the same compound, the TGI in the test on SF-268 CNS, in the test with SF-295 CNS, with SK-MEL-5 melanoma, in the test on SK-OV-3 ovarian and in the test with UACC-257 melanoma was above 100 µM in each case.

As for `CCOC1SC(SC)=NN1C(=O)C(OC(C)=O)C(OC(C)=O)C(OC(C)=O)C(OC(C)=O)C(=O)N1N=C(SC)SC1OCC` (configuration not stated), the TGI was above 100 µM with DU-145 prostate; 96.2 µM in the test with HS 578T breast; above 100 µM in the test with IGROV1 ovarian; above 100 µM with LOX IMVI melanoma; above 100 µM with NCI/ADR-RES ovarian; above 100 µM in the test on OVCAR-8 ovarian. For the same compound, the TGI in the test on SF-268 CNS, in the test with SF-295 CNS, in the test on SK-MEL-5 melanoma, in the test with SK-OV-3 ovarian and in the test on UACC-257 melanoma was above 100 µM each time.

In the case of `O=C1O[C@H]2[C@@H]3OC(=O)c4cc(O)c(O)c(O)c4-c4c(cc(O)c(O)c4O)C(=O)OC[C@H]2O[C@@H](OC(=O)c2cc(O)c(O)c(O)c2)[C@@H]3OC(=O)c2cc(O)c(O)c3c2[C@@H]2C1=CC(=O)C(O)(O)C2(O)O3` (some centres not stated), the TGI in the test with DU-145 prostate was above 100 µM; in the test on HS 578T breast it was above 100 µM; with IGROV1 ovarian, above 100 µM; in the test with LOX IMVI melanoma, 26.1 µM; with NCI/ADR-RES ovarian, above 100 µM; in the test with OVCAR-8 ovarian, 40.5 µM. Besides, the TGI with SF-268 CNS, with SF-295 CNS, in the test with SK-MEL-5 melanoma, in the test on SK-OV-3 ovarian and in the test with UACC-257 melanoma was above 100 µM in each case.

With `O=C1C[C@H]2[C@H](c3ccc(Br)cc3)[C@H]3C(=O)c4ccccc4NC(=O)[C@@H]3[C@@]2(O)c2ccccc2N1`, the TGI was above 100 µM in the test on DU-145 prostate; above 100 µM with HS 578T breast; 33.4 µM in the test on IGROV1 ovarian; 37.1 µM in the test with LOX IMVI melanoma; 61.9 µM with NCI/ADR-RES ovarian; above 100 µM with OVCAR-8 ovarian. Moreover, the TGI in the test on SF-268 CNS is above 100 µM; in the test with SF-295 CNS, above 100 µM; in the test on SK-MEL-5 melanoma it was 62 µM; in the test on SK-OV-3 ovarian, 78.8 µM; in the test with UACC-257 melanoma, 54.1 µM.

For `c1ccc2c(c1)C(=Nc1ccc(N=C3c4ccccc4-c4ccccc43)cc1)c1ccccc1-2`, the TGI in the test with DU-145 prostate, in the test with HS 578T breast, in the test with IGROV1 ovarian, with LOX IMVI melanoma, with NCI/ADR-RES ovarian and with OVCAR-8 ovarian was above 100 µM in each case. Also, the TGI with SF-268 CNS, in the test with SF-295 CNS, with SK-MEL-5 melanoma, in the test on SK-OV-3 ovarian and in the test with UACC-257 melanoma was above 100 µM throughout.
